From patent publication US5411984A, “Water soluble analogs and prodrugs of taxol” (Virginia Tech Intellectual Properties, Inc., priority 1992, dated 1995)
Structures can show the parent of a compound that is named as a salt. Each block holds one compound with its values, some of them ahead of it.

Tests used:
[1] = cited from earlier work
[2] = cited from earlier work; remark: listed apart in the source
B16 melanoma cells = conditions: compared with taxol; cited from earlier work
[3] = Stability in pH 5 buffer / mildly acidic aqueous solution (HPLC or TLC, onset of cloudiness); type: physicochemical; conditions: room temperature
Experimental: **Stabilities were determined in pH 5 buffer solution by one of the two
methods indicated below.
(a) 9.5 mg of sample was dissolved in 0.2 ml of EtOH and 0.2 ml of pH 5
buffer solution and let stand at room temperature. The progress of
decomposition was checked by HPLC or TLC and observation of the onset of
(b) 0.5 mg of sample was dissolved in 0.1 ml of EtOH and 0.9 ml of pH 5
buffer solution, the other conditions were the same as in (a) above. All
samples were stable under these conditions for at least 24 hours. No
hydrolysis was detectable by HPLC or TLC during this time period.

[4] = Relative solubility by the 1-octanol and water partition method (UV absorption at 228 nm), taxol = 1
Experimental: In separate experiments, taxol derivative 4 and 2'-succinyl taxol (R=NaO2 CCH2 CH2 CO2) were dissolved in a mildly basic aqueous solution.
*Solubilities were determined by using the 1octanol and water partition
method.Sample concentrations in water were determined by UV absorptions a […]

M109 lung carcinoma = assay: In vivo activity against M109 lung carcinoma implanted intraperitoneally (mice M109 model), median survival; parameters: species or system Balb/o x DBA/2 F1 hybrid mice
Experimental: Balb/o x DBA/2 F1 hybrid mice were implanted intraperitoneally, as described by William Rose in "Evaluation of Madison 109 Lung Carcinoma as a Model for Screening Antitumor Drugs, "Cancer Treatment Reports, 65 No. 3-4 (1981), with 0.5 mL of a 2% (w/v) brei of M109 lung carcinoma (the mice M109 model).
Mice were treated with a compound under study by receiving intraperitoneal injections of various doses on either Day 1, 5, and 9 post-tumor implant or Days 5 and 8 post-implant. Mice were followed daily for survival until approximately 75-90 days post-tumor implant. One group of mice per experiment remained untreated and served as the control group.
Median survival times of compound-treated (T) mice were compared to the median survival time of the control (C) mice. The ratio of the two values for each compound-treated group of mice was multiplied by 100 and expressed as a percentage (i.e.% T/C) in Table 2 for certain representative compounds.

tubulin = conditions: cited from earlier work
[5] = cited from earlier work; remark: listed apart in the source
[6] = Stability in mildly basic aqueous solution; type: physicochemical
[7] = method (a): 9.5 mg in 0.2 ml EtOH and 0.2 ml pH 5 buffer
[8] = method (b): 0.5 mg in 0.1 ml EtOH and 0.9 ml pH 5 buffer

Compound: CC(=O)O[C@H]1C(=O)[C@@]2(C)[C@H]([C@H](OC(=O)c3ccccc3)[C@]3(O)C[C@H](OC(=O)[C@H](OC(=O)CCC(=O)NCCCS(=O)(=O)O)[C@@H](NC(=O)c4ccccc4)c4ccccc4)C(C)=C1C3(C)C)[C@]1(OC(C)=O)CO[C@@H]1C[C@@H]2O [2'-([4-((3-sulfopropyl)amino-1,4-dioxobutyl]oxy)taxolsodium salt]
antineoplastic activity in mice [1]: active as antineoplastic agents in mice | aqueous solubility [2]: improved water-solubility as compared with taxol

Compound: CC(=O)O[C@H]1C(=O)[C@@]2(C)[C@H]([C@H](OC(=O)c3ccccc3)[C@]3(O)C[C@H](OC(=O)[C@H](OC(=O)CN(C)C)[C@@H](NC(=O)c4ccccc4)c4ccccc4)C(C)=C1C3(C)C)[C@]1(OC(C)=O)CO[C@@H]1C[C@@H]2O [2'-(N,N-dimethylglycyl) taxol]
inhibition of proliferation of B16 melanoma cells relative to taxol (B16 melanoma cells): to an extent similar to that of taxol

Compound: CC(=O)O[C@H]1C(=O)[C@@]2(C)[C@H]([C@H](OC(=O)c3ccccc3)[C@]3(O)C[C@H](OC(=O)[C@H](OC(=O)CCN(C)C)[C@@H](NC(=O)c4ccccc4)c4ccccc4)C(C)=C1C3(C)C)[C@]1(OC(C)=O)CO[C@@H]1C[C@@H]2O [2'-[3-(N,N-dimethylamino)propionyl]taxol]
inhibition of proliferation of B16 melanoma cells relative to taxol (B16 melanoma cells): to an extent similar to that of taxol

Compound: CC(=O)O[C@H]1C(=O)[C@@]2(C)[C@H]([C@H](OC(=O)c3ccccc3)[C@]3(O)C[C@H](OC(=O)[C@H](OC(=O)c4ccc(C(=O)O)cc4)[C@@H](NC(=O)c4ccccc4)c4ccccc4)C(C)=C1C3(C)C)[C@]1(OC(C)=O)CO[C@@H]1C[C@@H]2O [Compound 7, Taxol 2'-(sodium 1,4-benzenedioarboxylate)]
Stabilities at pH 5 [3, 7]: > 24 h | solubility relative to ortho benzoyl carboxylate derivative 4 ([4]; compared with 4): twice as soluble | T/C (M109 lung carcinoma; Q03Dx2;5, ip/ip, dose 15): 112% | T/C (M109 lung carcinoma; Q03Dx2;5, ip/ip, dose 30): 141% | T/C (M109 lung carcinoma; Q03Dx2;5, ip/ip, dose 60): 141% | in vivo biological activity relative to derivative 4 (M109 lung carcinoma; mice M109 model): superior in vivo biological activity

Compound: CC[C@]1(O)C[C@@H]2CN(CCc3c([nH]c4ccccc34)[C@@](C(=O)OC)(c3cc4c(cc3OC)N(C)[C@H]3[C@@](O)(C(=O)OC)[C@H](OC(C)=O)[C@]5(CC)C=CCN6CC[C@]43[C@@H]65)C2)C1 [vinblastine]
effect on microtubule / tubulin polymer formation (tubulin): prevent microtubule formation

Compound: CC(=O)O[C@H]1C(=O)[C@@]2(C)[C@H]([C@H](OC(=O)c3ccccc3)[C@]3(O)C[C@H](OC(=O)[C@H](OC(C)=O)[C@@H](NC(=O)c4ccccc4)c4ccccc4)C(C)=C1C3(C)C)[C@]1(OC(C)=O)CO[C@@H]1C[C@@H]2O [2'-acetyltaxol]
hydrolysis of acyl substituents under in vivo conditions [5]: readily hydrolyzed

Stabilities at pH 5 [3, 7]: > 24 h | appearance of solution [6]: remained clear | extent of decomposition [6]: remained substantially intact | Relative Solubility (p') [4]: 3
Compound: CC(=O)O[C@H]1C(=O)[C@@]2(C)[C@H]([C@H](OC(=O)c3ccccc3)[C@]3(O)C[C@H](OC(=O)[C@H](OC(=O)c4ccccc4C(=O)O)[C@@H](NC(=O)c4ccccc4)c4ccccc4)C(C)=C1C3(C)C)[C@]1(OC(C)=O)CO[C@@H]1C[C@@H]2O [Compound 4, Taxol 2'-(sodium 1,2-benzenedicarboxylate)]
T/C (M109 lung carcinoma; Q03Dx2;5, ip/ip, dose 15): 106% | T/C (M109 lung carcinoma; Q03Dx2;5, ip/ip, dose 30): 135% | T/C (M109 lung carcinoma; Q03Dx2;5, ip/ip, dose 60): 141%

Compound: CC(=O)O[C@H]1C(=O)[C@]2(C)[C@@H](OC(=O)c3ccccc3C(=O)O)C[C@H]3OC[C@@]3(OC(C)=O)[C@H]2[C@H](OC(=O)c2ccccc2)[C@]2(O)C[C@H](OC(=O)[C@H](OC(=O)c3ccccc3C(=O)O)[C@@H](NC(=O)c3ccccc3)c3ccccc3)C(C)=C1C2(C)C [Compound 15, Taxol 2',7-di(sodium 1,2-benzenedicarboxylate)]
T/C (M109 lung carcinoma; Z03Dx2;5, site/route not given, dose 15): 100% | T/C (M109 lung carcinoma; Z03Dx2;5, site/route not given, dose 30): 103% | T/C (M109 lung carcinoma; Z03Dx2;5, site/route not given, dose 60): 106%

Compound: CC(=O)O[C@H]1C(=O)[C@@]2(C)[C@H]([C@H](OC(=O)c3ccccc3)[C@]3(O)C[C@H](OC(=O)[C@H](OC(=O)CCS(=O)(=O)O)[C@@H](NC(=O)c4ccccc4)c4ccccc4)C(C)=C1C3(C)C)[C@]1(OC(C)=O)CO[C@@H]1C[C@@H]2O [--O2 CCH2 CH2 SO3 Na, 2'-[(3-sulfo-1-oxopropyl)oxy]taxol sodium salt]
Stabilities at pH 5 [3, 8]: > 24 h | antineoplastic activity in mice [1]: active as antineoplastic agents in mice | aqueous solubility [2]: improved water-solubility as compared with taxol

Compound: CCN(CC)CCNC(=O)c1ccc(C(=O)O[C@@H](C(=O)O[C@H]2C[C@@]3(O)[C@@H](OC(=O)c4ccccc4)[C@@H]4[C@]5(OC(C)=O)CO[C@@H]5C[C@H](O)[C@@]4(C)C(=O)[C@H](OC(C)=O)C(=C2C)C3(C)C)[C@@H](NC(=O)c2ccccc2)c2ccccc2)cc1 [Compound 13b, 2'-[4-([2-(N,N-diethylamino)ethyl]aminocarbonyl)benzoyl]taxol, hydrochloride]
Stabilities at pH 5 [3, 7]: > 24 h | T/C (M109 lung carcinoma; Z03Dx2;5, ip/ip, dose 50): 118% | T/C (M109 lung carcinoma; Z03Dx2;5, ip/ip, dose 100): 118% | T/C (M109 lung carcinoma; Z03Dx2;5, ip/ip, dose 200): 124%

Compound: CC(=O)O[C@H]1C(=O)[C@@]2(C)[C@H]([C@H](OC(=O)c3ccccc3)[C@]3(O)C[C@H](OC(=O)[C@H](OC(=O)CCC(=O)NCCS(=O)(=O)O)[C@@H](NC(=O)c4ccccc4)c4ccccc4)C(C)=C1C3(C)C)[C@]1(OC(C)=O)CO[C@@H]1C[C@@H]2O [--O2 CCH2 CH2 CONHCH2 --CH2 SO3 Na, 2'-([4-((2-sulfoethyl)amino)-1,4-dioxobutyl]oxy)taxol sodium salt]
Stabilities at pH 5 [3, 8]: > 24 h | antineoplastic activity in mice [1]: active as antineoplastic agents in mice | aqueous solubility [2]: improved water-solubility as compared with taxol

Compound: 2'-(4-benzyloxocarbonylbensoyl -7-(4-carboxybensoyl)taxol [Compound 17]
T/C (M109 lung carcinoma; Q03Dx2;5, ip/ip, dose 13): 97% | T/C (M109 lung carcinoma; Q03Dx2;5, ip/ip, dose 26): 100% | T/C (M109 lung carcinoma; Q03Dx2;5, ip/ip, dose 52): 109%

Stabilities at pH 5 [3, 8]: > 24 h | Relative Solubility (p') [4]: 96
Compound: CC(=O)O[C@H]1C(=O)[C@@]2(C)[C@H]([C@H](OC(=O)c3ccccc3)[C@]3(O)C[C@H](OC(=O)[C@H](OC(=O)c4ccccc4S(=O)(=O)O)[C@@H](NC(=O)c4ccccc4)c4ccccc4)C(C)=C1C3(C)C)[C@]1(OC(C)=O)CO[C@@H]1C[C@@H]2O [Compound 11, 2'-(2-Sulfobenzoyl) taxol, sodium salt]

time until solution turned cloudy [6]: less than 24 hours | degraded at 24 h ([6]; read-out: decomposed): ~50%
Compound: CC(=O)O[C@H]1C(=O)[C@@]2(C)[C@H]([C@H](OC(=O)c3ccccc3)[C@]3(O)C[C@H](OC(=O)[C@H](OC(=O)CCC(=O)O)[C@@H](NC(=O)c4ccccc4)c4ccccc4)C(C)=C1C3(C)C)[C@]1(OC(C)=O)CO[C@@H]1C[C@@H]2O [2'-succinyl taxol, 2'-succinyl taxol (R=NaO2 CCH2 CH2 CO2), reference compound]

Stabilities at pH 5 [3, 8]: > 24 h | Relative Solubility (p') [4]: 166
Compound: CC(=O)O[C@H]1C(=O)[C@@]2(C)[C@H]([C@H](OC(=O)c3ccccc3)[C@]3(O)C[C@H](OC(=O)[C@H](OC(=O)c4ccc(S(=O)(=O)O)cc4)[C@@H](NC(=O)c4ccccc4)c4ccccc4)C(C)=C1C3(C)C)[C@]1(OC(C)=O)CO[C@@H]1C[C@@H]2O [Compound 12, 2'-(4-sulfobenzoyl) taxol, sodium salt]

Compound: CC(=O)O[C@H]1C(=O)[C@@]2(C)[C@H]([C@H](OC(=O)c3ccccc3)[C@]3(O)C[C@H](OC(=O)[C@H](OC(=O)c4cc(C(=O)O)cc(C(=O)O)c4)[C@@H](NC(=O)c4ccccc4)c4ccccc4)C(C)=C1C3(C)C)[C@]1(OC(C)=O)CO[C@@H]1C[C@@H]2O [Compound 8c, Taxol 2'-(disodium 1,3,5-benzenetricarboxylate)]
Stabilities at pH 5 [3, 8]: > 24 h
